What was measured:
[1] = tested on: Hordeum vulgare (HORVS); assay: Drought stress test on crop plants, spray application in greenhouse, visual damage rating; type: in vivo; conditions: 25 g/ha, mean of three results
Description: Seeds of monocotyledonous and dicotyledonous crop plants were placed in sandy loam in wood-fiber pots, covered with soil and cultivated in a greenhouse under good growth conditions. The test plants were treated at the early leaf stage (BBCH10-BBCH13). To ensure uniform water supply before commencement of stress, the potted plants were supplied with the maximum amount of water immediately beforehand by dam irrigation and, after application, transferred in plastic inserts in order to prevent subsequent, excessively rapid drying. The inventive compounds, formulated in the form of wettable powders (WP), wettable granules (WG), suspension concentrates (SC) or emulsion concentrates (EC), were sprayed onto the green parts of the plants as an aqueous suspension at an equivalent water application rate of 600 l/ha with addition of 0.2% wetting agent (agrotin). Substance application was followed immediately by stress treatment of the plants (cold or drought stress). For cold stress treatment, the plants were kept under the following controlled conditions: Drought stress was induced by gradual drying out under the following conditions: “day”: 14 hours with illumination at 26° C. “night”: 10 hours without illumination at 18° C. The duration of the respective stress phases was guided mainly by the state of the untreated, stressed control plants and thus varies from crop to crop. It was ended (by re-irrigating or transfer to a greenhouse with good growth conditions) as soon as irreversible damage is observed on the untreated, stressed control plants. In the case of dicotyledonous crops, for example oilseed rape and soya, the duration of the drought stress phase was between 3 and 5 days, in the case of monocotyledonous crops, for example wheat, barley or corn, between 6 and 10 days. The duration of the cold stress phase varied between 12 and 14 days. The end of the stress phase was followed by an approx. 5-7-day recovery phase, during which the plants were once again kept under good growth conditions in a greenhouse. In order to rule out any influence of the effects observed by any fungicidal action of the test compounds, it was additionally ensured that the tests proceed without fungal infection and without infection pressure. After the recovery phase had ended, the intensities of damage were rated visually compared to untreated, unstressed controls of the same age (in the case of drought stress) or the same growth stage (in the case of cold stress). The intensity of damage was first assessed as a percentage (100%=plants have died, 0%=like control plants). These values were then used to calculate the efficacy of the test compounds (=percentage reduction in the intensity of damage as a result of substance application) by the following formula: [formula] EF: efficacy (%) DVus: damage value of the untreated, stressed control DVts: damage value of the plants treated with test compound The tables below list mean values in each case from three results of the same test. Effects of selected compounds of the formula (I) under drought stress: HORVS=Hordeum vulgare

[2] = tested on: Zea mays (ZEAMX); assay: as above; type: in vivo; conditions: 25 g/ha, mean of three results
Description: Seeds of monocotyledonous and dicotyledonous crop plants were placed in sandy loam in wood-fiber pots, covered with soil and cultivated in a greenhouse under good growth conditions. The test plants were treated at the early leaf stage (BBCH10-BBCH13). To ensure uniform water supply before commencement of stress, the potted plants were supplied with the maximum amount of water immediately beforehand by dam irrigation and, after application, transferred in plastic inserts in order to prevent subsequent, excessively rapid drying. The inventive compounds, formulated in the form of wettable powders (WP), wettable granules (WG), suspension concentrates (SC) or emulsion concentrates (EC), were sprayed onto the green parts of the plants as an aqueous suspension at an equivalent water application rate of 600 l/ha with addition of 0.2% wetting agent (agrotin). Substance application was followed immediately by stress treatment of the plants (cold or drought stress). For cold stress treatment, the plants were kept under the following controlled conditions: Drought stress was induced by gradual drying out under the following conditions: “day”: 14 hours with illumination at 26° C. “night”: 10 hours without illumination at 18° C. The duration of the respective stress phases was guided mainly by the state of the untreated, stressed control plants and thus varies from crop to crop. It was ended (by re-irrigating or transfer to a greenhouse with good growth conditions) as soon as irreversible damage is observed on the untreated, stressed control plants. In the case of dicotyledonous crops, for example oilseed rape and soya, the duration of the drought stress phase was between 3 and 5 days, in the case of monocotyledonous crops, for example wheat, barley or corn, between 6 and 10 days. The duration of the cold stress phase varied between 12 and 14 days. The end of the stress phase was followed by an approx. 5-7-day recovery phase, during which the plants were once again kept under good growth conditions in a greenhouse. In order to rule out any influence of the effects observed by any fungicidal action of the test compounds, it was additionally ensured that the tests proceed without fungal infection and without infection pressure. After the recovery phase had ended, the intensities of damage were rated visually compared to untreated, unstressed controls of the same age (in the case of drought stress) or the same growth stage (in the case of cold stress). The intensity of damage was first assessed as a percentage (100%=plants have died, 0%=like control plants). These values were then used to calculate the efficacy of the test compounds (=percentage reduction in the intensity of damage as a result of substance application) by the following formula: [formula] EF: efficacy (%) DVus: damage value of the untreated, stressed control DVts: damage value of the plants treated with test compound The tables below list mean values in each case from three results of the same test. Effects of selected compounds of the formula (I) under drought stress: ZEAMX=Zea mays

| Compound | EF (HORVS), efficacy = percentage reduction in the intensity of damage [1] [%] | EF (ZEAMX), efficacy = percentage reduction in the intensity of damage [2] [%] |
| --- | --- | --- |
| NC(=O)c1cccc2[nH]c(C(F)(F)C(F)(F)F)nc12 [1-2, 2-(pentafluoroethyl)-1H-benzimidazole-4-carboxamide] | >5 | >5 |
| NC(=O)c1cccc2[nH]c(C(F)(F)C(F)(F)C(F)(F)F)nc12 [1-17] | >5 | >5 |

Reference: patent US20110218103A1, “Fluoroalkyl-substituted 2-amidobenzimidazoles” (BAYER CROPSCIENCE AG, priority 2010, published 2011)
